PubChem BioAssay (NCI)
Where “and” joins values, the source holds several entries; their conditions need not be identical. Equal values may be shown once.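 The compound was tested at five concentrations on cells cultured in 96-well plates, with a 48-hour exposure period. GI50: concentration for 50% inhibition of growth. TGI: concentration producing complete growth inhibition.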

How the values were obtained:
Experiment in all cases: growth of human tumour cells (NCI), 48 h
786-0 renal = tested on: 786-0 renal
HCC-2998 colon = tested on: HCC-2998 colon
HS 578T breast = tested on: HS 578T breast
ACHN renal = tested on: ACHN renal
SK-OV-3 ovarian = tested on: SK-OV-3 ovarian
MDA-MB-435 = tested on: MDA-MB-435
HCT-116 colon = tested on: HCT-116 colon
OVCAR-5 ovarian = tested on: OVCAR-5 ovarian
KM12 colon = tested on: KM12 colon
MCF7 breast = tested on: MCF7 breast
HOP-92 NSCLC = tested on: HOP-92 NSCLC
SF-295 CNS = tested on: SF-295 CNS
UACC-62 melanoma = tested on: UACC-62 melanoma
COLO 205 colon = tested on: COLO 205 colon
MALME-3M melanoma = tested on: MALME-3M melanoma
SF-268 CNS = tested on: SF-268 CNS
K-562 leukemia = tested on: K-562 leukemia
NCI/ADR-RES ovarian = tested on: NCI/ADR-RES ovarian
HCT-15 colon = tested on: HCT-15 colon
SK-MEL-28 melanoma = tested on: SK-MEL-28 melanoma
LOX IMVI melanoma = tested on: LOX IMVI melanoma
NCI-H23 lung = tested on: NCI-H23 lung
CAKI-1 renal = tested on: CAKI-1 renal
EKVX NSCLC = tested on: EKVX NSCLC
DU-145 prostate = tested on: DU-145 prostate
RXF 393 renal = tested on: RXF 393 renal
BT-549 breast = tested on: BT-549 breast
NCI-H522 lung = tested on: NCI-H522 lung
M14 melanoma = tested on: M14 melanoma
HT29 colon = tested on: HT29 colon
SNB-19 CNS = tested on: SNB-19 CNS
RPMI-8226 leukemia = tested on: RPMI-8226 leukemia
SK-MEL-2 melanoma = tested on: SK-MEL-2 melanoma
TK-10 renal = tested on: TK-10 renal
HOP-62 NSCLC = tested on: HOP-62 NSCLC
A498 renal = tested on: A498 renal
MOLT-4 leukemia = tested on: MOLT-4 leukemia
SK-MEL-5 melanoma = tested on: SK-MEL-5 melanoma
A549 NSCLC = tested on: A549 NSCLC
SF-539 CNS = tested on: SF-539 CNS
OVCAR-3 ovarian = tested on: OVCAR-3 ovarian
OVCAR-4 ovarian = tested on: OVCAR-4 ovarian
SN12C renal = tested on: SN12C renal
OVCAR-8 ovarian = tested on: OVCAR-8 ovarian
U251 CNS = tested on: U251 CNS
PC-3 prostate = tested on: PC-3 prostate
NCI-H226 lung = tested on: NCI-H226 lung
IGROV1 ovarian = tested on: IGROV1 ovarian
UACC-257 melanoma = tested on: UACC-257 melanoma
UO-31 renal = tested on: UO-31 renal
CCRF-CEM leukemia = tested on: CCRF-CEM leukemia
NCI-H460 lung = tested on: NCI-H460 lung
HL-60(TB) leukemia = tested on: HL-60(TB) leukemia
MDA-MB-231 breast = tested on: MDA-MB-231 breast
SR leukemia = tested on: SR leukemia
SW-620 colon = tested on: SW-620 colon

Q: `COc1ccc(-c2cc(=O)oc3ccc(Cl)cc23)cc1F` was tested. Which GI50 (786-0 renal) did it give?
A: 366 nM and 87.7 nM

Q: What about the TGI (786-0 renal) of the same compound?
A: > 100000 nM

Q: And the GI50 (HCC-2998 colon)?
A: 590 nM and 243 nM

Q: And the TGI (HCC-2998 colon)?
A: 30200 nM

Q: What about the GI50 (HS 578T breast) of the same compound?
A: 181 nM and 75.4 nM

Q: And the TGI (HS 578T breast)?
A: 68900 nM

Q: And the TGI (ACHN renal)?
A: > 100000 nM

Q: What about the GI50 (SK-OV-3 ovarian) of the same compound?
A: 384 nM and 209 nM

Q: And the TGI (SK-OV-3 ovarian)?
A: > 100000 nM

Q: What about the GI50 (MDA-MB-435) of the same compound?
A: 23.3 nM and 20 nM

Q: And the TGI (MDA-MB-435)?
A: 67.5 nM and 53.1 nM

Q: And the GI50 (HCT-116 colon)?
A: 91.3 nM and 44.7 nM

Q: What about the TGI (HCT-116 colon) of the same compound?
A: 3630 nM and 10700 nM

Q: What about the GI50 (OVCAR-5 ovarian) of the same compound?
A: 633 nM and 1260 nM

Q: What about the TGI (OVCAR-5 ovarian) of the same compound?
A: > 100000 nM

Q: And the GI50 (KM12 colon)?
A: 71.2 nM and 52.4 nM

Q: What about the TGI (KM12 colon) of the same compound?
A: 11000 nM

Q: And the GI50 (MCF7 breast)?
A: 78.5 nM and 46.8 nM

Q: And the TGI (MCF7 breast)?
A: 18600 nM

Q: What about the TGI (HOP-92 NSCLC) of the same compound?
A: 7940 nM

Q: And the GI50 (SF-295 CNS)?
A: 84.5 nM and 36.7 nM

Q: And the TGI (SF-295 CNS)?
A: 14200 nM

Q: And the GI50 (UACC-62 melanoma)?
A: 37.7 nM and 40.6 nM

Q: What about the TGI (UACC-62 melanoma) of the same compound?
A: > 100000 nM

Q: And the GI50 (COLO 205 colon)?
A: 146 nM and 85.3 nM

Q: What about the TGI (COLO 205 colon) of the same compound?
A: 1090 nM and 896 nM

Q: What about the GI50 (MALME-3M melanoma) of the same compound?
A: 59200 nM

Q: And the TGI (MALME-3M melanoma)?
A: > 100000 nM

Q: What about the GI50 (SF-268 CNS) of the same compound?
A: 616 nM and 302 nM

Q: And the TGI (SF-268 CNS)?
A: > 100000 nM

Q: What about the GI50 (K-562 leukemia) of the same compound?
A: 43.5 nM and 40.1 nM

Q: And the GI50 (NCI/ADR-RES ovarian)?
A: 44.2 nM and 47.8 nM

Q: And the GI50 (HCT-15 colon)?
A: 53.7 nM and 46.3 nM

Q: And the TGI (HCT-15 colon)?
A: 10400 nM

Q: What about the GI50 (SK-MEL-28 melanoma) of the same compound?
A: 1710 nM and 3050 nM

Q: And the TGI (SK-MEL-28 melanoma)?
A: > 100000 nM

Q: And the GI50 (LOX IMVI melanoma)?
A: 186 nM and 69.5 nM

Q: And the TGI (LOX IMVI melanoma)?
A: > 100000 nM

Q: And the GI50 (NCI-H23 lung)?
A: 302 nM and 413 nM

Q: And the TGI (NCI-H23 lung)?
A: 96000 nM

Q: What about the TGI (CAKI-1 renal) of the same compound?
A: > 100000 nM

Q: What about the GI50 (EKVX NSCLC) of the same compound?
A: 509 nM and 362 nM

Q: And the TGI (EKVX NSCLC)?
A: > 100000 nM

Q: And the GI50 (DU-145 prostate)?
A: 255 nM and 261 nM

Q: And the TGI (DU-145 prostate)?
A: 4160 nM and 27300 nM

Q: And the GI50 (RXF 393 renal)?
A: 141 nM and 233 nM

Q: What about the GI50 (BT-549 breast) of the same compound?
A: 303 nM and 66.5 nM

Q: And the TGI (BT-549 breast)?
A: 6620 nM

Q: What about the GI50 (NCI-H522 lung) of the same compound?
A: 34.9 nM and 21.8 nM

Q: And the GI50 (M14 melanoma)?
A: 51.9 nM and 42.3 nM

Q: What about the TGI (M14 melanoma) of the same compound?
A: > 100000 nM

Q: And the GI50 (HT29 colon)?
A: 53.8 nM and 39.7 nM

Q: And the TGI (HT29 colon)?
A: 336 nM

Q: And the GI50 (SNB-19 CNS)?
A: 350 nM and 74.4 nM

Q: And the TGI (SNB-19 CNS)?
A: > 100000 nM

Q: What about the GI50 (RPMI-8226 leukemia) of the same compound?
A: 297 nM and 106 nM

Q: And the TGI (RPMI-8226 leukemia)?
A: > 100000 nM

Q: And the GI50 (SK-MEL-2 melanoma)?
A: 212 nM and 38.5 nM

Q: And the TGI (SK-MEL-2 melanoma)?
A: 2680 nM

Q: And the GI50 (TK-10 renal)?
A: 435 nM

Q: What about the TGI (TK-10 renal) of the same compound?
A: 79600 nM

Q: And the GI50 (HOP-62 NSCLC)?
A: 208 nM and 188 nM

Q: What about the TGI (HOP-62 NSCLC) of the same compound?
A: 27300 nM

Q: What about the GI50 (A498 renal) of the same compound?
A: 103 nM and 47.1 nM

Q: What about the TGI (A498 renal) of the same compound?
A: 790 nM and 5170 nM

Q: What about the GI50 (MOLT-4 leukemia) of the same compound?
A: 310 nM and 57.1 nM

Q: What about the TGI (MOLT-4 leukemia) of the same compound?
A: > 100000 nM

Q: And the GI50 (SK-MEL-5 melanoma)?
A: 140 nM and 71.7 nM

Q: And the TGI (SK-MEL-5 melanoma)?
A: 835 nM and 2350 nM

Q: What about the GI50 (A549 NSCLC) of the same compound?
A: 268 nM and 105 nM

Q: What about the TGI (A549 NSCLC) of the same compound?
A: > 100000 nM

Q: And the GI50 (SF-539 CNS)?
A: 126 nM and 47.5 nM

Q: And the TGI (SF-539 CNS)?
A: 733 nM and 479 nM

Q: What about the GI50 (OVCAR-3 ovarian) of the same compound?
A: 50.2 nM and 37.9 nM

Q: What about the TGI (OVCAR-3 ovarian) of the same compound?
A: 497 nM and 345 nM

Q: What about the GI50 (OVCAR-4 ovarian) of the same compound?
A: 1030 nM and 5590 nM

Q: What about the TGI (OVCAR-4 ovarian) of the same compound?
A: > 100000 nM

Q: What about the TGI (SN12C renal) of the same compound?
A: > 100000 nM

Q: And the GI50 (OVCAR-8 ovarian)?
A: 490 nM and 327 nM

Q: What about the TGI (OVCAR-8 ovarian) of the same compound?
A: > 100000 nM

Q: What about the GI50 (U251 CNS) of the same compound?
A: 331 nM and 51.9 nM

Q: What about the TGI (U251 CNS) of the same compound?
A: 12600 nM

Q: And the GI50 (PC-3 prostate)?
A: 274 nM and 79.7 nM

Q: And the TGI (PC-3 prostate)?
A: > 100000 nM

Q: And the GI50 (NCI-H226 lung)?
A: 705 nM and 3940 nM

Q: And the TGI (NCI-H226 lung)?
A: > 100000 nM

Q: And the GI50 (IGROV1 ovarian)?
A: 1160 nM and 683 nM

Q: And the TGI (IGROV1 ovarian)?
A: > 100000 nM

Q: And the GI50 (UACC-257 melanoma)?
A: 23200 nM

Q: And the TGI (UACC-257 melanoma)?
A: > 100000 nM

Q: And the GI50 (UO-31 renal)?
A: 755 nM and 1200 nM

Q: And the TGI (UO-31 renal)?
A: > 100000 nM

Q: And the GI50 (CCRF-CEM leukemia)?
A: 222 nM and 59.9 nM

Q: What about the TGI (CCRF-CEM leukemia) of the same compound?
A: > 100000 nM

Q: And the GI50 (NCI-H460 lung)?
A: 167 nM and 49.9 nM

Q: And the TGI (NCI-H460 lung)?
A: 21800 nM

Q: What about the GI50 (HL-60(TB) leukemia) of the same compound?
A: 129 nM and 33.9 nM

Q: What about the TGI (HL-60(TB) leukemia) of the same compound?
A: 908 nM and 480 nM

Q: And the TGI (MDA-MB-231 breast)?
A: > 100000 nM

Q: And the GI50 (SR leukemia)?
A: 42.6 nM

Q: What about the GI50 (SW-620 colon) of the same compound?
A: 53 nM and 43.1 nM

Q: What about the TGI (SW-620 colon) of the same compound?
A: > 100000 nM
